Test results taken from US8487115B2, “Hydantoin derivatives of cyano-substituted chrysanthemic acid esters and their use in pest control” (Sumitomo Chemical Company, Limited, priority 2010, dated 2013).

These molecules were tested on German cockroaches (assay: Knockdown test on German cockroaches by spraying an oil solution). Conditions: 0.00156% (w/v) oil solution, 1.5 ml sprayed from 60 cm height, ten German cockroaches (5 male, 5 female), repeated twice.
Type: in vivo, German cockroach (Blattella germanica)
Protocol: Each of the present invention compounds (1) and (2) (0.00156 parts) produced in the aforementioned Production Examples was dissolved in 10 parts of dichloromethane and the resulting solution was mixed with 89.99844 parts of deodorized kerosine to prepare a 0.00156% (w/v) oil solution.
Ten German cockroaches (5 of each male and female) were released in a test container (measuring 8.75 cm in diameter and 7.5 cm in height, bottom area covered with a 16 mesh wire netting) coated with butter at an inner wall, and the container was disposed on the bottom of a test chamber (bottom surface measuring 46 cm and 46 cm, 70 cm in height).
From 60 cm in height above the container, 1.5 ml of the oil solution of each of the present invention compounds (1) and (2) was sprayed using a spray gun (spray pressure: 0.4 kg/cm^2). Thirty seconds after spraying, the container was removed from the test chamber. After a given time, the number of knockdowned cockroaches was counted and a knockdown rate was determined (repeated twice). The knockdown rate was calculated by the following equation. Knockdown rate (%)=(number of knockdowned cockroaches/number of test cockroaches)×100
For comparison, a test was carried out in the same manner as described above, except that 2,5-dioxo-3-(2-propynyl)imidazolidinylmethyl=(1R)-trans-3-(2-methyl-1-propenyl)-2,2-dimethylcyclopropane carboxylate (compound described in “Pestiside Science”, 1979, 10, p. 291, hereinafter referred to as the comparative compound (1)) represented by the following formula: […]
With `C#CCN1CC(=O)N(COC(=O)[C@@H]2[C@@H](C=C(C)C)C2(C)C)C1=O` [Comparative compound (1), 2,5-dioxo-3-(2-propynyl)imidazolidinylmethyl=(1R)-trans-3-(2-methyl-1-propenyl)-2,2-dimethylcyclopropane carboxylate] the “Knockdown rate (%) after 2 minutes” value was 45%.
For `C#CCN1CC(=O)N(COC(=O)[C@@H]2[C@@H](/C=C(\C#N)C=C)C2(C)C)C1=O` [Present invention compound (1), 2,5-dioxo-3-(2-propynyl)imidazolidinylmethyl=(1R)-trans-3-[(1Z)-2-cyano-1,3-butadienyl]-2,2-dimethylcyclopropane carboxylate], the “Knockdown rate (%) after 2 minutes” value was 95%.
For `C#CCN1CC(=O)N(COC(=O)[C@@H]2[C@@H](/C=C(C#N)/C=C/C)C2(C)C)C1=O` [Present invention compound (2), 2,5-dioxo-3-(2-propynyl)imidazolidinylmethyl=(1R)-trans-3-[(1Z,3E)-2-cyano-1,3-pentadienyl]-2,2-dimethylcyclopropane carboxylate], the “Knockdown rate (%) after 2 minutes” value was 100%.
With `C#CCN1CC(=O)N(COC(=O)[C@@H]2[C@@H](/C=C(\C)C=C)C2(C)C)C1=O` [comparative compound (2), 2,5-dioxo-3-(2-propynyl)imidazolidinylmethyl=(1R)-trans-3-[(1E)-2-methyl-1-butadienyl)-2,2-dimethylcyclopropane carboxylate] the “Knockdown rate (%) after 2 minutes” value was 10%.
